From ChEMBL document CHEMBL1201862, “PubChem BioAssay data set” (2004)
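Exposure lasted 48 hours, with cells grown in 96-well plates and compounds tested at five concentrations. At the GI50, growth is halved.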 Calls of active or inactive are those of the source. Cut-off read from the data, not from the text of the source: active = GI50 up to about 1.1 µM and inactive = higher.

Columns and labels:
Assay in all cases: DTP human tumour cell line panel, 48 h
NCI-H522 = tested on: NCI-H522
SK-OV-3 = tested on: SK-OV-3
SK-MEL-28 = tested on: SK-MEL-28
OVCAR-5 = tested on: OVCAR-5
T47D = tested on: T47D
HL-60 = tested on: HL-60
HCT-15 = tested on: HCT-15
SF-268 = tested on: SF-268
SNB-19 = tested on: SNB-19
U-251 = tested on: U-251
NCI-H226 = tested on: NCI-H226
MOLT-4 = tested on: MOLT-4
Malme-3M = tested on: Malme-3M
EKVX = tested on: EKVX
SF-539 = tested on: SF-539
CCRF-CEM = tested on: CCRF-CEM
OVCAR-8 = tested on: OVCAR-8
A549 = tested on: A549
NCI/ADR-RES = tested on: NCI/ADR-RES

| Compound | GI50 (NCI-H522) | GI50 (SK-OV-3) | GI50 (SK-MEL-28) | GI50 (OVCAR-5) | GI50 (T47D) | GI50 (HL-60) | GI50 (HCT-15) [µM] | GI50 (SF-268) | GI50 (SNB-19) | GI50 (U-251) | GI50 (NCI-H226) | GI50 (MOLT-4) | GI50 (Malme-3M) | GI50 (EKVX) | GI50 (SF-539) | GI50 (CCRF-CEM) | GI50 (OVCAR-8) | GI50 (A549) | GI50 (NCI/ADR-RES) |
| --- | --- | --- | --- | --- | --- | --- | --- | --- | --- | --- | --- | --- | --- | --- | --- | --- | --- | --- | --- |
| C[C@@H](c1ccccc1)N1CN(C(=O)OCc2ccccc2)C(C)(C)CC1=O | > 100 µM (inactive) | > 100 µM (inactive) | 56.9 µM (inactive) | > 100 µM (inactive) | 50.6 µM (inactive) | 66.8 µM (inactive) | > 100 | > 100 µM (inactive) | > 100 µM (inactive) | > 100 µM (inactive) | > 100 µM (inactive) | > 100 µM (inactive) | > 100 µM (inactive) | > 100 µM (inactive) | > 100 µM (inactive) | > 100 µM (inactive) | > 100 µM (inactive) | > 100 µM (inactive) | > 100 µM (inactive) |
| CCOS(=O)(=O)c1ccc(-c2c3nc(c(-c4ccc(S(=O)(=O)OCC)cc4)c4ccc([nH]4)c(-c4ccc(S(=O)(=O)OCC)cc4)c4nc(c(-c5ccc(S(=O)(=O)OCC)cc5)c5ccc2[nH]5)C=C4)C=C3)cc1 | 10.5 µM (inactive) | > 31.6 µM (inactive) | > 10 µM (inactive) | > 31.6 µM (inactive) | > 31.6 µM (inactive) | > 31.6 µM (inactive) | > 31.6 | > 31.6 µM (inactive) | > 31.6 µM (inactive) | > 31.6 µM (inactive) | 18.3 µM (inactive) | > 31.6 µM (inactive) | 17.7 µM (inactive) | > 31.6 µM (inactive) | 8.13 µM (inactive) | > 31.6 µM (inactive) | > 31.6 µM (inactive) | > 31.6 µM (inactive) | > 31.6 µM (inactive) |
| COc1ccc(C(=O)NC2=C(Cl)C(=O)c3ccccc3C2=O)cc1 | 0.416 µM (active) | 2.23 µM (inactive) | 1.15 µM (inactive) | 2.7 µM (inactive) | 0.929 µM (active) | 0.336 µM (active) | 0.482 | 4.69 µM (inactive) | 5.16 µM (inactive) | 0.977 µM (active) | 1.82 µM (inactive) | 0.955 µM (active) | 1.48 µM (inactive) | 5.3 µM (inactive) | 1.66 µM (inactive) | 3.23 µM (inactive) | 3.32 µM (inactive) | 4.08 µM (inactive) | 2.07 µM (inactive) |
| COC(=O)c1c(C)cccc1C1CN=NC12Cc1c(C)cccc1C2=O (configuration not stated) | 24.9 µM (inactive) | > 100 µM (inactive) | > 100 µM (inactive) | > 100 µM (inactive) | 37.9 µM (inactive) | 34.9 µM (inactive) | 88.1 | > 100 µM (inactive) | > 100 µM (inactive) | > 100 µM (inactive) | > 100 µM (inactive) | 37.4 µM (inactive) | 91.4 µM (inactive) | 24.8 µM (inactive) | > 100 µM (inactive) | > 100 µM (inactive) | 44.7 µM (inactive) | 82.6 µM (inactive) | 59.6 µM (inactive) |
| COc1cccc(Nc2nc(NNC(=O)Cc3ccccc3)nc(NNC(=O)c3ccncc3)n2)c1 | > 100 µM (inactive) | > 10 µM (inactive) | > 100 µM (inactive) | > 100 µM (inactive) | > 10 µM (inactive) | 68.1 µM (inactive) | 7.93 | > 10 µM (inactive) | > 100 µM (inactive) | > 10 µM (inactive) | > 100 µM (inactive) | 78.7 µM (inactive) | > 10 µM (inactive) | > 10 µM (inactive) | > 10 µM (inactive) | > 10 µM (inactive) | > 10 µM (inactive) | > 10 µM (inactive) | > 10 µM (inactive) |
| CC(C)=CCC/C(C)=C/COc1c2ccoc2cc2oc(=O)ccc12 [BERGAMOTTIN] | 19 µM (inactive) | 27.5 µM (inactive) | 59.2 µM (inactive) | 23.8 µM (inactive) | 19.3 µM (inactive) | 16.4 µM (inactive) | 30.4 | 54.1 µM (inactive) | 32.3 µM (inactive) | 20.6 µM (inactive) | 30.1 µM (inactive) | 15.4 µM (inactive) | 33.5 µM (inactive) | 22.2 µM (inactive) | 37.2 µM (inactive) | 18 µM (inactive) | 43.7 µM (inactive) | 24.9 µM (inactive) | 35 µM (inactive) |
| C=CCSC1=N/C(=C\c2ccco2)C(=O)N1CC=C | 43.9 µM (inactive) | > 100 µM (inactive) | 72.4 µM (inactive) | > 100 µM (inactive) | 28.2 µM (inactive) | 26.8 µM (inactive) | 57.9 | > 100 µM (inactive) | > 100 µM (inactive) | > 100 µM (inactive) | 34.4 µM (inactive) | 25.9 µM (inactive) | > 100 µM (inactive) | 40.3 µM (inactive) | > 100 µM (inactive) | 42.6 µM (inactive) | > 100 µM (inactive) | 79.1 µM (inactive) | 85.7 µM (inactive) |
| COc1cc2cc(C(=O)N3C[C@H](CCl)c4c3cc(O)c3ccccc43)[nH]c2c(OC)c1OC | 0.108 µM (active) | 0.515 µM (active) | 0.267 µM (active) | 0.264 µM (active) | 1.71 µM (inactive) | < 0.01 µM (active) | 0.192 | 0.117 µM (active) | 0.246 µM (active) | 0.1 µM (active) | 0.12 µM (active) | 0.0381 µM (active) | 0.152 µM (active) | 0.31 µM (active) | 0.055 µM (active) | 0.207 µM (active) | 0.0942 µM (active) | 0.252 µM (active) | 0.136 µM (active) |
